Assay results: patent US12414931B1 (priority 2024, dated 2025)

Assays:
purified recombinant KGA = target: T1, purified recombinant KGA (Homo sapiens, UniProt O94925); test: KGA activity inhibition assay, spectrophotometric (NADH production at 340 nm); assay type: biochemical; details: 37° C., 30 min, 5 mM glutamine
T1 construct: His6 (C); made in house; host or cells: E. coli Rosetta (DE3), pET28a(+)
T1 sequence (O94925 72-598): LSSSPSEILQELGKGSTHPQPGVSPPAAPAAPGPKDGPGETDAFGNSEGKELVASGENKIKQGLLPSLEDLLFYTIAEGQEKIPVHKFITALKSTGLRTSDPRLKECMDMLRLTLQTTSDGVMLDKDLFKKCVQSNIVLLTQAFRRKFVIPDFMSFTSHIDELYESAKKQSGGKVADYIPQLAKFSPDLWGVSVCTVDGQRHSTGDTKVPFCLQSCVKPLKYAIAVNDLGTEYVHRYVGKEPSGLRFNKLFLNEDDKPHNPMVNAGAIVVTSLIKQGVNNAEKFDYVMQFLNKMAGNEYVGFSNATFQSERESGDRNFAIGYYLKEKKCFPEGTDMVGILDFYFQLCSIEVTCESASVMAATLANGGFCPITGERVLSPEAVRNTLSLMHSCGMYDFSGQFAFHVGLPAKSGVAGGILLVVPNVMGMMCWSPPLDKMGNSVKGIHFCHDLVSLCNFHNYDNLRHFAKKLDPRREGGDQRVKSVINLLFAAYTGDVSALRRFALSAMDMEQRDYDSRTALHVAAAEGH

MDA-MB-231 cells [1] = test system: MDA-MB-231 cells
purified KGA = purified KGA (Homo sapiens, UniProt O94925); details: read-out: apparent binding affinity (Kd)
MCF12A cells = assay type: cell-based, human; details: read-out: IC50 cell viability, normal breast cells
MDA-MB-231 cells [2] = test system: MDA-MB-231 cells; remark: listed apart in the source
KGA = target: T2, KGA (Homo sapiens, UniProt O94925); assay type: biochemical
T2 construct: His6 (C); made in house; host or cells: E. coli Rosetta (DE3), pET28a(+)
T2 sequence (O94925 72-598): T1 sequence (O94925 72-598)

NC(CCP(=O)(O)O)C(=O)O (stereo not shown) [AP4, 2-amino-4-phosphonobutyric acid]
half-maximal inhibitory concentration (IC50) against KGA (purified recombinant KGA): submillimolar range

NC(CC[As](O)O)C(=O)O (stereo not shown) [R-AST-OH, trivalent hydroxyarsinothricin]
cells that lost viability (MDA-MB-231 cells [1]; 10 µM): approximately 64% | IC50 (MDA-MB-231 cells [1]; read-out: IC50 cell viability): 5 µM | cells that lost viability (HCC1569 cells; 10 µM): ~47% | IC50 (HCC1569 cells; read-out: IC50 cell viability): 3 µM | Kd (purified KGA): 40 µM | IC50 (MCF12A cells): 75 µM | cell permeability (uptake of arsenicals) (MDA-MB-231 cells [2]): lowest permeability | IC50 (KGA; luminescent assay, 15 min preincubation with KGA, read-out: IC50 against KGA): 2 µM | fold more effective inhibitor of KGA than Rox(III) (KGA; ratio of IC50 values): 4.5 fold | fold more effective inhibitor of KGA than pentavalent AST-OH (KGA; ratio of IC50 values): 125 fold

[N-]=[N+]=CC(=O)CC[C@H](N)C(=O)O [DON, 6-diazo-5-oxo-L-norleucine]
half-maximal inhibitory concentration (IC50) against KGA (purified recombinant KGA): submillimolar range

N[C@H](CC[As](=O)(O)O)C(=O)O [AST-OH, hydroxyarsinothricin]
half-maximal inhibitory concentration (IC50) against KGA (purified recombinant KGA): submillimolar range
